Results as given in patent US20180311268A1, “RESPONSE-GUIDED HCV THERAPY” (EMORY UNIVERSITY, priority 2015, published 2018).
Where “and” joins values, the source holds several entries; their conditions need not be identical. Identical values can stand only once.

Columns and labels:
[1] = Plasma concentrations of anti-HCV drugs by LC-MS/MS; format: in vivo, human
Experimental: Plasma samples from patients infected with HCV were stored in aliquots at −80° C. until further processing. Viral RNA was extracted and the genome sequenced using an Applied Biosystems 3730×1 DNA analyser as previously described.^21 Data were analysed with the ABL-DeepChek-HCV 1.4 software (ABL SA, Luxembourg, Luxembourg). To confirm compliance, a liquid chromatography-tandem mass spectrometry (LC-MS/MS) method was developed to detect and quantify the anti-HCV drug concentrations in plasma collected from each patient. Briefly, blood samples were collected from 25 patients at 8 h, 24 h, and 48 h after initiating treatment. 50 μL of plasma was extracted with 3 mL of ethyl acetate containing abacavir (as an internal standard). The supernatant was collected, air dried, then reconstituted in 2 mmol/L ammonium acetate solution with 75% methanol. Five target compounds were simultaneously monitored and quantified by LC-MS/MS in the multiple reaction monitoring mode, including sofosbuvir (m/z 530.2/243.2), daclatasvir (m/z 739.5/339.3), ledipasvir (m/z 889.4/637.3), asunaprevir (m/z 748.4/648.4), and simeprevir (m/z 750.4/315.2). A Dionex Ultimate 3000 HPLC system (Thermo Scientific, Waltham, Mass., USA) coupled with an AB SCIEX API5000 triple quadrupole mass spectrometer (AB SCIEX, Framingham, Mass., USA) was used for analysis.
Fifty μL plasma was extracted with 3 mL of ethyl acetate containing abacavir (as internal standard). The supernatant was collected, air-dried then reconstituted in 2 mM ammonium acetate solution with 75% methanol. Five target compounds were simultaneously monitored and quantified by LC-MS/MS in the multiple reaction monitoring (MRM) mode, including sofosbuvir (m/z 530.2à243.2), daclatasvir (m/z 739.5à339.3), ledipasvir (m/z 889.4à637.3), asunaprevir (m/z 748.4à648.4) and simeprevir (m/z 750.4à315.2). SOF concentrations were measured with a wide range from BLOQ to 3,174 ng/mL; LDV and DCV were in the range of BLOQ to 469 ng/mL and 101 to 3045 ng/mL; ASV and SMV were in the range of BLOQ to 626 ng/mL and 30.6 to 693 ng/mL, respectively.

[2] = tested on: HCV genotype 1; settings: added to sofosbuvir and ledipasvir, 6 week triple-drug regimens; cited from earlier work

| SMILES | Range of measured plasma concentrations ([1]; all subjects, 8, 24 and 48 hr after first treatment, BLOQ = below LOQ) | concentration at 8 h ([1]; human, in vivo, individual subjects on SOF + DCV + ASV Then SOF + LDV, >3 weeks treatment, 8 h) | concentration at 24 h ([1]; human, in vivo, individual subjects on SOF + DCV + ASV Then SOF + LDV, >3 weeks treatment, 24 h) | concentration at 48 h ([1]; human, in vivo, individual subjects on SOF + DCV + ASV Then SOF + LDV, >3 weeks treatment, 48 h) | concentration at 24 h ([1]; human, in vivo, individual subjects on SOF + DCV + SMV, 3 weeks treatment, 24 h) | concentration at 8 h ([1]; human, in vivo, individual subjects on SOF + LDV + ASV Then SOF + LDV, >3 weeks treatment, 8 h) | Plasma concentration ([1]; individual subjects on SOF + DCV + ASV, 3 weeks treatment, 8 h) | Plasma concentration ([1]; individual subjects on SOF + DCV + ASV, 3 weeks treatment, 24 h) | Plasma concentration ([1]; individual subjects on SOF + DCV + ASV, 3 weeks treatment, 48 h) | Plasma concentration ([1]; individual subjects on SOF + DCV + SMV, 3 weeks treatment, 8 h) | Plasma concentration ([1]; individual subjects on SOF + DCV + SMV, 3 weeks treatment, 24 h) | Plasma concentration ([1]; individual subjects on SOF + DCV + SMV, 3 weeks treatment, 48 h) | Plasma concentration ([1]; individual subjects on SOF + LDV + ASV Then SOF + LDV, >3 weeks treatment, 8 h) | Plasma concentration ([1]; individual subjects on SOF + LDV + ASV Then SOF + LDV, >3 weeks treatment, 24 h) | Plasma concentration ([1]; individual subjects on SOF + LDV + ASV, 3 weeks treatment, 8 h after initiating treatment) | Plasma concentration ([1]; individual subjects on SOF + LDV + ASV, 3 weeks treatment, 24 h) | Plasma concentration ([1]; individual subjects on SOF + LDV + ASV, 3 weeks treatment, 48 h) | Patients with SVR12 [2] |
| --- | --- | --- | --- | --- | --- | --- | --- | --- | --- | --- | --- | --- | --- | --- | --- | --- | --- | --- |
| CC(C)OC(=O)[C@H](C)N[P@](=O)(OC[C@H]1O[C@@H](n2ccc(=O)[nH]c2=O)[C@](C)(F)[C@@H]1O)Oc1ccccc1 [SOF, Sofosbuvir] | ≤ 3,174 ng/mL | 9.99 ng/mL | 11.2 ng/mL | 631 ng/mL | 2410 ng/mL | 0.67 ng/mL | 0.55 ng/mL and 0.28 ng/mL and 2.03 ng/mL and 13.5 ng/mL and 0.47 ng/mL | 1.09 ng/mL and 0.28 ng/mL and 0.27 ng/mL and 192 ng/mL and 256 ng/mL | 1.41 ng/mL and 0.80 ng/mL and 7.55 ng/mL and 292 ng/mL and 12.7 ng/mL and 1807 ng/mL | 2.35 ng/mL and 0.26 ng/mL and 14.7 ng/mL and 0.42 ng/mL and 1.45 ng/mL | 2114 ng/mL and 1923 ng/mL | 3174 ng/mL and 1796 ng/mL and 1549 ng/mL and 1227 ng/mL | 0.58 ng/mL | 202 ng/mL and 1591 ng/mL and 0.61 ng/mL | 7.17 ng/mL and 5.52 ng/mL and 4.22 ng/mL and 18.2 ng/mL and 4.54 ng/mL and 10.4 ng/mL | 0.94 ng/mL and 8.92 ng/mL and 1.23 ng/mL and 2.13 ng/mL and 1.17 ng/mL and 0.99 ng/mL | 4.76 ng/mL and 6.35 ng/mL and 0.64 ng/mL and 1.59 ng/mL and 0.92 ng/mL and 0.81 ng/mL | – |
| CC[C@@H]1C[C@]1(NC(=O)[C@@H]1C[C@@H](Oc2cc(-c3csc(NC(C)C)n3)nc3c(Cl)c(OCCN4CCOCC4)ccc23)CN1C(=O)[C@@H](NC(=O)O[C@@H]1C[C@@H]2C[C@@H]2C1)C(C)(C)C)C(=O)O [GS-9451] | – | – | – | – | – | – | – | – | – | – | – | – | – | – | – | – | – | 95% |
| CC1=CC[C@H](C(=O)N(c2cc(C#CC(C)(C)C)sc2C(=O)O)[C@H]2CC[C@](O)(CO[C@H]3CCOC3)CC2)CC1 [GS-9669] | – | – | – | – | – | – | – | – | – | – | – | – | – | – | – | – | – | 95% |
